Laboratory results: patent US8513233B2, “Pyrimidinyl-propionic acid derivatives and their use as PPAR agonists” (Shanghai Institute of Materia Medica, CAS, priority 2007, dated 2013)

Legend:
Format in all cases: cell-based
PPAR-γ = biological target: T1, PPAR-γ (Homo sapiens, UniProt P37231); assay: Transient transfection and transcription assay (luciferase reporter, U2OS cells); details: 24 h treatment
T1 construct: expressed in transfected cells; host or cells: U2OS cells, transiently transfected with pcDNA3.1 expression vectors (FuGene6)
T1 sequence (P37231 1-505): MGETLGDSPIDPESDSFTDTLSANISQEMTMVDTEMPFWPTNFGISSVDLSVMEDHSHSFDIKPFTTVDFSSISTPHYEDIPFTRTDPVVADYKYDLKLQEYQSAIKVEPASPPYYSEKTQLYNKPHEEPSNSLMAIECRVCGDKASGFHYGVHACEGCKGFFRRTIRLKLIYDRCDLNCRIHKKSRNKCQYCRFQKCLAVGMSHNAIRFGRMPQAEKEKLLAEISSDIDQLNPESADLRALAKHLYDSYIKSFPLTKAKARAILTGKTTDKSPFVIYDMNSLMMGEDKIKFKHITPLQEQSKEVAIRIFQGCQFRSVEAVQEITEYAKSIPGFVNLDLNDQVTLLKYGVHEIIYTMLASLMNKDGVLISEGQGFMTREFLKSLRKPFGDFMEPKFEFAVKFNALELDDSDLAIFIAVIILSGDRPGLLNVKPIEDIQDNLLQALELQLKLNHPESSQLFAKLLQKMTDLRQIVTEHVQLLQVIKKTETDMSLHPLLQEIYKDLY
T1 sequence (P19793 1-462 partner): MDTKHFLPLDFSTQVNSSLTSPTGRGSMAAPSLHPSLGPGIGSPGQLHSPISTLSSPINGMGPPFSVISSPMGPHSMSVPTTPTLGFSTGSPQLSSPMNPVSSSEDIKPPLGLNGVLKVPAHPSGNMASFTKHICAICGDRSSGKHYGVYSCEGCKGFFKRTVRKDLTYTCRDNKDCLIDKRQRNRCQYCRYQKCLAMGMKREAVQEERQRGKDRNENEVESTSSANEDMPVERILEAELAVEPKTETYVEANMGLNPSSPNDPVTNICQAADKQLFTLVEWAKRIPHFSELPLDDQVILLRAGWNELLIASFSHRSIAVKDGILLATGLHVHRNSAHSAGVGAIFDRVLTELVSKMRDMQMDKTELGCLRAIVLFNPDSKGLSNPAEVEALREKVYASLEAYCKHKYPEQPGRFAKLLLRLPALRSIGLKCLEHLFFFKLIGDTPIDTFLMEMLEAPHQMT
Description: cDNAs for Human RXR, PPAR were obtained by RTPCR from the human liver or adipose tissues. Amplified cDNAs were cloned into pcDNA3.1 expression vector and the inserts were confirmed by sequencing. U2OS cells were cultured in McCoy's 5A with 10% heat-inactivated fetal bovine serum in a humidified 5% CO2 atmosphere at 37° C. Cells were seeded in 96-well plates the day before transfection to give a confluence of 50-80% at transfection. A total of 60 ng of DNA containing 10 ng of hRXR, 10 ng of pCMV Gal, 10 ng of nuclear receptor expression vectors and 30 ng of the corresponding reporters were cotransfected per well using FuGene6 transfection reagent according to the manufacturer's instructions. […] The final concentration of DMSO in culture medium was 0.1%. […] Luciferase activity was monitored using the luciferase assay kit according to the manufacturers instructions. Light emission was read in a Labsystems Ascent Fluoroskan reader. To measure galactosidase activity to normalize the luciferase data, 50 IL of supernatant from each transfection lysate was transferred to a new microplate. Galactosidase assays were performed in the microwell plates using a kit from Promega and read in a microplate reader. Compounds were tested in five concentrations ranging from 0.01 to 10 μM. […] The results were expressed as means (SD).

SPC-A1 = assay: Growth inhibition, modified MTT assay, SPC-A1; details: SPCA1, mean of 3 independent tests
Description: (§1) The growth inhibition was evaluated by the modified MTT assay. Briefly, the cells were seeded at 1×10^4 cells/well in 96-well plates (Falcon, Calif., USA), and incubated for 24 h in […] culture media with 10% FCS. The media were then replaced by serum-free medium. After 24 h, the media were placed in triplicate with grade concentrations of compounds. As controls, the cells were cultivated in DMEM/F12 only. The cells were then treated by MTT (Sigma, USA) assay, […] (5 g/L) for 4 h. After the removal of the supernatant, the purple-blue sediment was dissolved in 100 μL/well DMSO, and the optical densities were read on the multi-well scanning spectrophotometer (Labsystems Dragon, Finland) at 492 nm (A492). The growth inhibition rate (GIR) of the treated cells was calculated using Equation: GIR(%)={1−[A490/A490(control)]}×100% The results were also converted to IC50 (the compound concentration required for 50% growth inhibition of tumor cells), which were calculated by using the sigmoidal fitting model by the Origin 7.0 software (OriginLab, Northampton, Mass., USA). The mean IC50 was determined from the results of 3 independent tests.

T24 = assay: Growth inhibition, modified MTT assay, T24; details: Homo sapiens, T-24, mean of 3 independent tests
Description: as §1

HepG2 = assay: Growth inhibition, modified MTT assay, HepG2; details: Homo sapiens, mean of 3 independent tests
Description: as §1

MCF-7 = assay: Growth inhibition, modified MTT assay, MCF-7; details: Homo sapiens, MCF7; MCF-7, MTT, mean of 3 independent tests
Description: as §1

| SMILES | EC50 (PPAR-γ) | IC50 (SPC-A1) | IC50 (T24) | IC50 (HepG2) | IC50 (MCF-7) |
| --- | --- | --- | --- | --- | --- |
| Cc1ccc(OC(C)(Cc2ccc(Oc3cc(N4CCN(Cc5ccccc5)CC4)nc(N)n3)cc2)C(=O)O)cc1 (stereo not drawn) [Compound 31, 3-{4-[2-Amino-6-(4-benzyl-piperazin-1-yl)-pyrimidin-4-yloxy]-phenyl}-2-methyl-2-p-tolyloxy-propionic acid] | 3.8 µM | 35.3 µM | 40.8 µM | 45.5 µM | 29.3 µM |
| C[C@@](Cc1ccc(Oc2cc(N3CCN(Cc4ccccc4)CC3)nc(N)n2)cc1)(Oc1ccccc1)C(=O)O [Compound 3, S-3-{4-[2-Amino-6-(4-benzyl-piperazin-1-yl)-pyrimidin-4-yloxy]-phenyl}-2-methyl-2-phenoxy-propionic acid] | 3.31 µM | – | – | – | – |
| CC(Cc1ccc(Oc2cc(N3CCN(Cc4cccc5ccccc45)CC3)nc(N)n2)cc1)(Oc1ccccc1)C(=O)O (stereo not drawn) [Compound 6, 3-{4-[2-Amino-6-(4-(naphthalen-1-ylmethyl)-piperazin-1-yl)-pyrimidin-4-yloxy]-phenyl}-2-methyl-2-phenoxy-propionic acid] | 3.39 µM | 49.8 µM | 36.3 µM | 24.8 µM | 42.2 µM |
| CC(Cc1ccc(Oc2cc(N3CCN(Cc4ccc(C(C)(C)C)cc4)CC3)nc(N)n2)cc1)(Oc1ccccc1)C(=O)O (stereo not drawn) [Compound 14, 3-{4-{2-Amino-6-[4-(4-tert-butyl-benzyl)-piperazin-1-yl]-pyrimidin-4-yloxy}-phenyl}-2-methyl-2-phenoxy-propionic acid] | 6.03 µM | 8.6 µM | 12.5 µM | 26.5 µM | 7.9 µM |
| Cc1cccc(CN2CCN(c3cc(Oc4ccc(CC(C)(Oc5ccccc5)C(=O)O)cc4)nc(N)n3)CC2)c1 (stereo not drawn) [Compound 9, 3-{4-{2-Amino-6-[4-(3-methyl-benzyl)-piperazin-1-yl]-pyrimidin-4-yloxy}-phenyl}-2-methyl-2-phenoxy-propionic acid] | 4.17 µM | 48.9 µM | > 50 µM | > 50 µM | 38 µM |
| CC(Cc1ccc(Oc2cc(N3CCN(CC4CCCCC4)CC3)nc(N)n2)cc1)(Oc1ccccc1)C(=O)O (stereo not drawn) [Compound 27, 3-{4-[2-Amino-6-(4-cyclohexylmethyl-piperazin-1-yl)-pyrimidin-4-yloxy]-phenyl}-2-methyl-2-phenoxy-propionic acid] | 5.37 µM | > 50 µM | > 50 µM | 44.5 µM | > 50 µM |
| CC(Cc1ccc(Oc2cc(N3CCN(c4ccccc4)CC3)nc(N)n2)cc1)(Oc1ccccc1)C(=O)O (stereo not drawn) [Compound 22, 3-{4-[2-Amino-6-(4-phenyl-piperazin-1-yl)-pyrimidin-4-yloxy]-phenyl}-2-methyl-2-phenoxy-propionic acid] | 4.68 µM | 32.5 µM | 22.6 µM | 29.7 µM | – |
| C[C@@](Cc1ccc(Oc2cc(N3CCN(Cc4ccccc4)CC3)nc(N)n2)cc1)(Oc1ccccc1)C(=O)O (stereo in doubt) [Compound 4, R-3-{4-[2-Amino-6-(4-benzyl-piperazin-1-yl)-pyrimidin-4-yloxy]-phenyl}-2-methyl-2-phenoxy-propionic acid] | 5.75 µM | – | – | – | – |
| CC(Cc1ccc(Oc2cc(N3CCN(c4cccc(Cl)c4)CC3)nc(N)n2)cc1)(Oc1ccccc1)C(=O)O (stereo not drawn) [Compound 23, 3-{4-{2-Amino-6-[4-(3-chloro-phenyl)-piperazin-1-yl]-pyrimidin-4-yloxy}-phenyl}-2-methyl-2-phenoxy-propionic acid] | 4.37 µM | 12 µM | 15.2 µM | 20 µM | 11.8 µM |
| CCCc1ccc(C(=O)N2CCN(c3cc(Oc4ccc(CC(C)(Oc5ccccc5)C(=O)O)cc4)nc(N)n3)CC2)cc1 (stereo not drawn) [Compound 24, 3-{4-{2-Amino-6-[4-(4-propyl-benzoyl)-piperazin-1-yl]-pyrimidin-4-yloxy}-phenyl}-2-methyl-2-phenoxy-propionic acid] | – | 43.7 µM | 39.4 µM | > 50 µM | 38.2 µM |
| CC(Cc1ccc(Oc2cc(N3CCN(C(=O)c4ccccc4)CC3)nc(N)n2)cc1)(Oc1ccccc1)C(=O)O (stereo not drawn) [Compound 21, 3-{4-[2-Amino-6-(4-benzoyl-piperazin-1-yl)-pyrimidin-4-yloxy]-phenyl}-2-methyl-2-phenoxy-propionic acid] | – | > 50 µM | > 50 µM | > 50 µM | > 50 µM |
| COc1ccccc1C(=O)N1CCN(c2cc(Oc3ccc(CC(C)(Oc4ccccc4)C(=O)O)cc3)nc(N)n2)CC1 (stereo not drawn) [Compound 25, 3-{4-{2-Amino-6-[4-(2-methoxy-benzoyl)-piperazin-1-yl]-pyrimidin-4-yloxy}-phenyl}-2-methyl-2-phenoxy-propionic acid] | – | > 50 µM | > 50 µM | > 50 µM | > 50 µM |
| CC(Cc1ccc(Oc2cc(N3CCN(Cc4ccccc4)CC3)nc(N)n2)cc1)(Oc1ccc(C(F)(F)F)cc1)C(=O)O (stereo not drawn) [Compound 32, 3-{4-[2-Amino-6-(4-benzyl-piperazin-1-yl)-pyrimidin-4-yloxy]-phenyl}-2-methyl-2-(4-trifluoromethyl-phenoxy)-propionic acid] | 2.24 µM | 28 µM | 37.7 µM | 30 µM | 34.2 µM |
| CC(Cc1ccc(Oc2cc(N3CCN(Cc4ccccn4)CC3)nc(N)n2)cc1)(Oc1ccccc1)C(=O)O (stereo not drawn) [Compound 36, 3-{4-[2-Amino-6-(4-pyridin-2-ylmethyl-piperazin-1-yl)-pyrimidin-4-yloxy]-phenyl}-2-methyl-2-phenoxy-propionic acid] | – | > 50 µM | > 50 µM | > 50 µM | > 50 µM |
| COc1ccc(OC(C)(Cc2ccc(Oc3cc(N4CCN(Cc5ccccc5)CC4)nc(N)n3)cc2)C(=O)O)cc1 (stereo not drawn) [Compound 30, 3-{4-[2-Amino-6-(4-benzyl-piperazin-1-yl)-pyrimidin-4-yloxy]-phenyl}-2-(4-methoxy-phenoxy)-2-methyl-propionic acid] | 5.75 µM | 38.9 µM | > 50 µM | > 50 µM | 42.8 µM |
| CC(Cc1ccc(Oc2cc(N3CCN(Cc4cccc(C#N)c4)CC3)nc(N)n2)cc1)(Oc1ccccc1)C(=O)O (stereo not drawn) [Compound 26, 3-{4-{2-Amino-6-[4-(3-cyano-benzyl)-piperazin-1-yl]-pyrimidin-4-yloxy}-phenyl}-2-methyl-2-phe noxy-propionic acid] | – | 37.7 µM | 38.8 µM | 35.6 µM | 23.3 µM |
